According to patent US20220184025A1, “NOVEL DEPSIDE DIMERIC COMPOUNDS FOR SKELETAL MUSCLE MODULATION, METHODS AND USES THEREOF” (SOCIETE DES PRODUITS NESTLE S.A., priority 2019, published 2022):

Test system: mouse hindlimb muscles
Experiment: In vivo muscle regeneration after cardiotoxin injury
Conditions: mice, oral gavage 100 mg/kg body weight once a day from one week before cardiotoxin injury; muscles harvested 5 days after the injury; vs. water control
Experimental: Early phase of expansion and subsequent phase of myogenic differentiation of Muscle Stem Cells were evaluated by counting the number of Pax7+ cells (A) and myogenin+ cells (B), respectively. Data are expressed as number of cells per area of injured muscle. The size of each newly formed myofiber (C) has been measured based on the expression of the eMHC and laminin that allow to recognize and delineate these nascent myofibers. Results are shown as mean myofiber cross-sectional area (μm2).
In order to reproduce the physiological process of muscle regeneration that occurs in adult skeletal muscles in response to injury or disease, we performed an intramuscular injection of cardiotoxin into mouse hindlimb muscles. One week prior to the induction of the muscle injury, mice were given by oral gavage diffractaic acid (at 100 mg/kg body weight) vs. water control. Mice were treated once a day until the end of the experiment. To evaluate the efficiency of the muscle regeneration, muscles that have been previously injured were harvested 5 days after the injury and cryosections were prepared. Several myogenic markers were then measured. […]
Data are expressed as number of cells per area of injured muscle. The size of each newly formed myofiber (FIG. 10C) has been measured based on the expression of the eMHC and laminin that allow to recognize and delineate these nascent myofibers. […]

COc1cc(C)c(C(=O)Oc2cc(C)c(C(=O)O)c(O)c2C)c(OC)c1C [Diffractaic acid, Benzoic acid, 2,4-dimethoxy-3,6-dimethyl-, 4-carboxy-3-hydroxy-2,5-dimethylphenyl ester]
in vivo muscle regeneration process: able to promote the in vivo muscle regeneration process
